Laboratory results as given in patent publication US20200163880A1, “CATIONIC LIPOSOMES” (DANMARKS TEKNISKE UNIVERSITET, priority 2017, published 2020).
Entries after “also recorded” stand apart in the source; their conditions may differ.

Legend:
[1] = test system: whole blood from healthy human donors; assay: Cytokine secretion in ex vivo human whole blood (ELISA, 24 h); format: cell-based; settings: 24 h incubation
Method: Induction of cytokines from whole blood after treatment and incubation for 24 h. For all figures statistical analyses was made using students T-test, *p<0.05, **p<0.01, ***p<0.005, n=8-10. Test samples were the free TLR7 agonist 1v270 (1v270), the PEGylated cationic formulation with the immune stimulating 1v270 TLR7 agonist (Cationic PEG 1v270 Lip), a non-targeting neutral PEGylated liposome with 1v270 TLR7 agonist (Neutral PEG 1v270 Lip) and a non-PEGylated cationic formulation with 1v270 (Cationic 1v270 Lip). Composition and properties can be seen in Table 1. RPMI is control sample only with addition of media and DMSO is a vehicle control as solvent for 1v270.
For targeting a liposome to monocytes and antigen presenting cells (APCs) for use in cancer immunotherapy, it is key to boost an appropriate immune response. To analyze this we examined the ability of TLR7 agonist containing liposomes to induce cytokine secretion after targeting as shown in FIG. 2 and example 4, after another 24 h incubation. […]
To determine the optimal content of 1v270 in cationic PEGylated liposomes, liposomes were prepared with 0, 1, 2.5, 5 and 7.5% 1v270 content. […] The liposomes were incubated as described in example 5 and cytokine secretion of anti-tumor cytokines IL-12p70 and IFNα was measured.

Balb c mice = test system: Balb c mice
Method: Balb c mice were injected intravenously with 200 nmol/mouse of the free 1v270 compound, the Cationic PEG 1v270 Lip formulation and the Cationic 1v270 Lip formulation. […] The AUC values calculated for each cytokine were used to determine I) the Toxicity Prediction with the IL-6/IFNα and IL-6/IL-12p70 ratios, and J) the immunogenicity score by the IFNα/IL-10 and IL-12p70/IL-10 ratios shown in arbitrary units. (n=5 mice/group, Students T-test was used, *p<0.05, **p<0.01, *** p<0.005, ns=non significant, error bars show SE).

CCCCCCCC/C=C\CCCCCCCC(=O)OCC(COP(=O)(O)OCCNC(=O)c1ccc(Cn2c(=O)[nH]c3c(N)nc(OCCOC)nc32)cc1)OC(=O)CCCCCCC/C=C\CCCCCCCC (stereo not shown) [1v270, 2-(4-((6-amino-2-(2-methoxyethoxy)-8-oxo-7H-purin-9(8H)-yl)methyl)benzamido)ethyl 2,3-bis(oleoyloxy)propyl phosphate]
secretion of IL-6 ([1]; FIG. 3C): highest; also recorded: most potent | secretion of IL-10 ([1]; FIG. 3D): significantly higher levels | higher toxicity prediction than the cationic PEG 1v270 Lip (Balb c mice; AUC ratios, FIG. 4I, ratio not given): 8 fold | induction of IFNα in mouse plasma (Balb c mice; iv, 200 nmol/mouse, 2, 6 and 24 h): unable to induce IFNα at all; also recorded: no IFNα was measured
